Data published in article PMC7583830 (Molecules, 2020).
Entries after “also recorded” stand apart in the source; their conditions may differ. One block for each molecule: values may come before it. Where a SMILES comes first, the peptide text is derived from it. Where no end group is shown, it is not given here. [ ]: non-standard residue; d: D form. The star is where a group is joined. DOTA = O=C(O)CN1CCN(CC(=O)O)CCN(CC(=O)*)CCN(CC(=O)O)CC1; NMeNle = CCCC[C@H](NC)C(=O)O

Key:
[1] = Stability in fresh human serum (radio-HPLC); assay type: in vitro ADME; conditions: 24 h incubation, 37 °C
Procedure: In vitro stability studies for the characterization of the metabolic stability of the radiolabeled peptide analogs in human serum were carried out with [^177Lu]Lu-1, [^177Lu]Lu-M1, [^177Lu]Lu-M2, [^177Lu]Lu-M3 and [^177Lu]Lu-M4 (n = 2). Additional stability studies in rat liver and kidney homogenates were performed for [^177Lu]Lu-1 (n = 2). Tissue homogenates were prepared from dissected organs by homogenization for 1 min at RT (IKA-Werke, Staufen, Germany) in 20 mM HEPES buffer pH 7.3 (30% v/v). The radioligands were incubated in the different media at a concentration of 500 pmol/mL (corresponding to an activity of 6–11 MBq). After incubation at 37 °C at different time points for up to 24 h, a 100 µl sample was taken in duplicates and analyzed by HPLC. Samples obtained from human serum and rat homogenates were treated with ACN at a ratio of 1:1.5 (v/v) to precipitate proteins, centrifuged (14,000 rpm, 2 min, centrifuge 5424, Eppendorf AG, Germany) and diluted with water at a ratio of 1:1 (v/v). A 100 µl aliquot of this solution was injected into the radio HPLC system. The degradation of the radioligand was evaluated based on the radiochemical purity after radiolabeling and the percentage of intact radiopeptide observed during incubation in the different media.

[2] = Distribution coefficient (logD) in octanol/PBS; assay type: physicochemical; conditions: octanol/PBS pH 7.4; read-out: logD
Procedure: The mixture was vigorously vortexed at room temperature over a period of 15 min using a small shaker (MS3 Basic, IKA, Staufen, Germany) with speed of 1500 rpm.

[3] = Protein binding in human serum by size exclusion chromatography; assay type: in vitro ADME; conditions: 24 h incubation
Procedure: For protein binding assessment, the radiolabeled DOTA-peptides were incubated in fresh human serum at 37 °C (500 pmol/mL, n = 2). After 1, 4 and 24 h of incubation, two samples were taken for each time point and analyzed by Sephadex G-50 size-exclusion chromatography (GE Healthcare Illustra, Little Chalfont, UK). The percentage of protein binding was determined by measuring the column and the eluate with the gamma-counter.

[4] = Metabolic stability in vivo and radiometabolites (radio-HPLC of blood, urine, liver, kidney); set-up: species or system BALB/c mice
Procedure: Metabolic biodistribution studies were performed in accordance with the ethical standards of the institution and approved by the Austrian Ministry of Science (BMWFW-66.011/0072-V/3b/2019). These studies were carried out in 5- to 7-week-old female BALB/c mice (n = 3) injected with [^177Lu]Lu-1 via a lateral tail vein. To allow monitoring of the metabolites by radio-HPLC, mice were injected with 30 MBq corresponding to 0.8 nmol total peptide. The mice were euthanized by cervical dislocation after different time points of 10 min, 30 min and 1 h p.i. and the urine and a venous blood sample were collected at the time of sacrifice. Liver and kidneys were dissected and homogenized in 20 mM HEPES buffer pH 7.3 at a ratio of 1:1 (v/v) with an Ultra-Turrax T8 homogenizer (IKA-Werke, Staufen, Germany) for 1 min at RT. Before radio-HPLC analysis, the samples (except urine) were treated with ACN at a ratio of 1:1 (v/v) to precipitate proteins, centrifuged at 2000× g for 2 min and diluted with water at a ratio of 1:1 (v/v). For HPLC analysis of the samples, the analytical HPLC system described above with a flow rate of 1 mL/min was used together with the following optimized water/ACN/0.1% TFA gradient to allow a better separation of [^177Lu]Lu-1 and the different radiometabolites: 0–7 min 1–7% ACN, 7–8 min 7–10% ACN, 8–18 min 10–18% ACN, 18–20 min 18–32% ACN, 20–27 min 32% ACN, 27–37 min […], 37–40 min 80% ACN, 40–40.1 min 80–1% ACN, 40.1–45 min 1% ACN. Urine was measured with the low-sensitivity loop of the radiodetector. The remaining samples were analyzed with the high-sensitivity loop due to the lower radioactivity present in blood, liver and kidney homogenate. To quantify the percentage of intact [^177Lu]Lu-1 and [^177Lu]Lu-M1 showing some overlap in the radiochromatogram when using the high-sensitivity loop of the radiodetector, the two radiopeptides were co-injected at different known ratios to enable a more accurate separation and integration of the two peaks (see supporting Figure S4). Mice from the metabolic biodistribution studies were subjected to a further dissection of all remaining tissues (blood, lung, heart, femur, spleen, muscle, intestine, pancreas and stomach). All organs, also including liver and kidneys, were weighed, and their radioactivity was measured in the gamma counter together with a standard and the residual body. To quantify the uptake of radioactivity in liver and kidneys, a part of liver and kidney homogenate was measured in the gamma counter to extrapolate the radioactivity for the whole organ.

[5] = system: neprylisin-1 and neprylisin-2; assay: Incubation in vitro with neprylisin-1 and neprylisin-2; conditions: cited from earlier work
A431-CCK2R xenografts = conditions: mouse, in vivo; cited from earlier work
[6] = set-up: method as in PMID 29896292; conditions: radiolabeled with different radiometals; cited from earlier work
[7] = set-up: method as in doi:10.2174/1874471010902040304; conditions: kidney homogenate; labeled with indium-111; cited from earlier work
fresh human serum = conditions: 37 °C, up to 24 h
[8] = blood of BALB/c mice injected with [^177Lu]Lu-1; conditions: female BALB/c mice, up to 1 h p.i.
[9] = urine of BALB/c mice injected with [^177Lu]Lu-1; conditions: female BALB/c mice, up to 1 h p.i.
[10] = soluble phase extracted from liver homogenate of BALB/c mice injected with [^177Lu]Lu-1; conditions: female BALB/c mice, up to 1 h p.i.
[11] = soluble phase extracted from kidney homogenate of BALB/c mice injected with [^177Lu]Lu-1; conditions: female BALB/c mice, up to 1 h p.i.
[12] = blood of patients injected with ^111In-labeled DOTA-MG11; conditions: up to 10 min after injection; cited from earlier work

intact radiopeptide [1]: 29.7 ± 0.8%
intact radiopeptide ([1]; listed as radiolabeled M3): less than 30%
logD [2]: -4.13 ± 0.11
fraction unbound [3]: 0.766
percentage of intact radiopeptide / radiometabolite ([4]; blood, 30 min p.i., mice injected i.v. with [177Lu]Lu-1): 17.0%
percentage of intact radiopeptide / radiometabolite ([4]; blood, 60 min p.i., mice injected i.v. with [177Lu]Lu-1): 20.4%
amount of radiometabolite ([4]; blood, different time points up to 1 h p.i.): < 21%
percentage of intact radiopeptide / radiometabolite ([4]; kidney, 30 min p.i.): 7.9%
percentage of intact radiopeptide / radiometabolite ([4]; liver, 30 min p.i.): 8.5%
percentage of intact radiopeptide / radiometabolite ([4]; liver, 60 min p.i.): 5.6%
percentage of intact radiopeptide / radiometabolite ([4]; urine, 30 min p.i.): 9.5%
percentage of intact radiopeptide / radiometabolite ([4]; urine, 60 min p.i.): 9.8%
Molecule: CCCC[C@@H](C(=O)O)N(C)C(=O)[C@H](Cc1c[nH]c2ccccc12)NC(=O)CNC(=O)[C@H](Cc1ccc(O)cc1)NC(=O)[C@@H]1CCCN1C(=O)[C@@H](CCC(=O)O)NC(=O)CN1CCN(CC(=O)O)CCN(CC(=O)O)CCN(CC(=O)O)CC1 [[^177Lu]Lu-M3, metal not drawn] ({DOTA}-[dE]PYGW[NMeNle]-OH; C-terminus assumed)

Molecule: DOTA-(DGlu)6-Ala-Tyr-Gly-Trp-Met-Asp-Phe-NH2
cleaved bond [5]: Asp-Phe

Molecule: DOTA-(DGlu)6-Ala-Tyr-Gly-Trp-Met-Asp-Phe-NH2 (AYGWMDF; DOTA-(D-Glu)6 N-terminus, C-amide; radiolabel; printed: Ala-Tyr-Gly-Trp-Met-Asp-Phe-) [PP-F11]
tumor uptake (A431-CCK2R xenografts): ~ 6.7 % IA/g

Molecule: DOTA-(DGlu)6-Ala-Tyr-Gly-Trp-Nle-Asp-Phe-NH2
not cleaved [5]: seemed to be resistant against neprylisins

Molecule: DOTA-(DGlu)6-Ala-Tyr-Gly-Trp-Nle-Asp-Phe-NH2 [PP-F11N]
tumor uptake (A431-CCK2R xenografts): 6.9 % IA/g

Molecule: DOTA-DGlu-Ala-Tyr-Gly-Trp-(N-Me)Nle-Asp-1Nal-NH2 [DOTA-MGS5]
cell uptake [6]: > 50%
tumor-to-kidney ratio (A431-CCK2R xenografts): 4–6

Molecule: DOTA-DGlu-Ala-Tyr-Gly-Trp-Met-Asp-Phe-NH2 ({DOTA}-[dE]AYGWMDF-NH2; also: 111In complex) [DOTA-MG11, truncated MG analog, results quoted for the indium-111 labeled form]
time to complete degradation [7]: ≤ 10 min

not cleaved (fresh human serum): 98.1 ± 0.3% after 24 h incubation
Molecule: DOTA-DGlu-Pro-Tyr-Gly-Trp-(N-Me)Nle-Asp

Molecule: DOTA-DGlu-Pro-Tyr-Gly-Trp-(N-Me)Nle-Asp-1Nal-NH2
not cleaved (fresh human serum): 96.2 ± 1.3% intact peptide after 24 h incubation
cleaved bond [8]: 1Nal-NH2, minor and Asp-1Nal, minor and (N-Me)Nle-Asp, minor and Gly-Trp, minor
not cleaved [8]: M8 not found in any of the tissues examined
cleaved bond [9]: 1Nal-NH2, minor and Asp-1Nal, major and (N-Me)Nle-Asp and Gly-Trp, major
not cleaved [9]: M8 not found in any of the tissues examined
cleaved bond [10]: 1Nal-NH2 and Asp-1Nal and (N-Me)Nle-Asp and Trp-(N-Me)Nle, minor and Gly-Trp and Tyr-Gly
not cleaved [10]: M8 not found in any of the tissues examined
cleaved bond [11]: 1Nal-NH2 and Asp-1Nal and (N-Me)Nle-Asp and Gly-Trp and Tyr-Gly and Pro-Tyr, minor, 60 min
not cleaved [11]: M8 not found in any of the tissues examined

Molecule: {DOTA}-[dE]AYGWMDF-NH2
fragment found [12]: DOTA-DGlu-Ala-Tyr, 10 min after injection
cleaved bond [5]: Asp-Phe; also recorded: Gly-Trp

not cleaved (fresh human serum): 98.4 ± 0.01% after 24 h incubation
Molecule: {DOTA}-[dE]PYGW
